Results from patent US20250032477A1, “COMPOUNDS, PHARMACEUTICAL COMPOSITIONS, AND METHODS FOR THE TREATMENT, PREVENTION, OR MANAGEMENT OF HYPERPROLIFERATIVE DISORDERS” (VINCERX PHARMA GMBH, priority 2021, published 2025).
Where a name gives a salt, the structure may show the parent alone. Read-outs that look alike come from different tables or passages of the source.

Tests used:
SUM149 [1] = test: Cytotoxicity in vitro in the presence and absence of elastase (MTT); assay type: cell-based
Procedure: (§1) Cultivation of cells was performed according to standard procedures with the media recommended by the provider. The cells, in a total volume of 100 μL, were seeded in a 96-well plate with a white bottom (#3610). After a 24 h incubation period at 37° C. and […], the medium was exchanged by adding 90 μL fresh medium. The treatment started by adding the test compound in 10 μL of culture medium to the cells in triplicates. Concentrations ranging from 10^−5 M to 10^−13 M were chosen. Two identically treated sets of samples were prepared. One set was treated with the test compound alone, whereas to the second set the compound and 10 nM elastase was added followed by a 72 h incubation period at 37° C. and 5% CO2. The proliferation was detected using the MTT assay (ATCC). At the end of the incubation period the MTT reagent was added to all samples for 4 h. Lysis of the cells followed by addition of the detergent was done overnight. The formed dye was detected at 570 nm. The proliferation of untreated but otherwise identically handled cells was define as the […].

NCI H292 [2] = test: Cytotoxicity assay (Version 2), automated, AC50, with or without elastase; assay type: cell-based, human
Procedure: as §1
(§2) The Cytotoxicity assay (Version 2) was performed as above described. Some changes were applied as the assays were performed in an automated fashion and the IC50 values determination was changed. Here the change in metabolic activity of the cells, in percent, was calculated by normalization of the measured values to the absorbance values of medium containing wells without cells (=−100%) and the absorbance of the DMSO-treated cells (=0%). AC50 values (activity concentration at −50%) were determined by means of a 4 parameter Hill-fit using GeneData Screener software.

786-O [3] = test: as above; assay type: cell-based, human
Procedure: as §1, §2

HT29 [4] = test: as above; assay type: cell-based, human
Procedure: as §1, §2

NCI H292 [5] = test: Cytotoxicity in vitro in the presence and absence of elastase (MTT); assay type: cell-based, human
Procedure: as §1

786-O [6] = test: as above; assay type: cell-based, human
Procedure: as §1

HT29 [7] = test: as above; assay type: cell-based, human
Procedure: as §1

SUM149 [8] = test: Cytotoxicity assay (Version 2), automated, AC50, with or without elastase; assay type: cell-based
Procedure: as §1, §2

[9] = read-out: NCI H292 AC50 +elastase
[10] = read-out: NCI H292 AC50 −elastase
[11] = read-out: SUM149 AC50 +elastase
[12] = read-out: SUM149 AC50 −elastase
[13] = NCI H292 cells, Version 2, with elastase, activity concentration at −50%, read-out: NCI H292 AC50 +elastase
[14] = NCI H292 cells, Version 2, without elastase, activity concentration at −50%, read-out: NCI H292 AC50 −elastase
[15] = 786-O cells, Version 2, with elastase, activity concentration at −50%, read-out: 786-O AC50 +elastase
[16] = 786-O cells, Version 2, without elastase, activity concentration at −50%, read-out: 786-O AC50 −elastase
[17] = HT29 cells, Version 2, with elastase, activity concentration at −50%, read-out: HT29 AC50 +elastase
[18] = HT29 cells, Version 2, without elastase, activity concentration at −50%, read-out: HT29 AC50 −elastase
[19] = SUM149 cells, Version 2, with elastase, activity concentration at −50%, read-out: SUM149 AC50 +elastase
[20] = SUM149 cells, Version 2, without elastase, activity concentration at −50%, read-out: SUM149 AC50 −elastase

Row | SMILES | AC50 (NCI H292 [2]; [9]) [nM] | AC50 (NCI H292 [2]; [10]) [nM] | AC50 (786-O [3]; read-out: 786-O AC50 +elastase) [nM] | AC50 (786-O [3]; read-out: 786-O AC50 −elastase) [nM] | AC50 (HT29 [4]; read-out: HT29 AC50 +elastase) [nM] | AC50 (HT29 [4]; read-out: HT29 AC50 −elastase) [nM] | AC50 (SUM149 [8]; [11]) [nM] | AC50 (SUM149 [8]; [12]) [nM] | AC50 (NCI H292 [2]; [13]) [nM] | AC50 (NCI H292 [2]; [14]) [nM] | AC50 (786-O [3]; [15]) [nM] | AC50 (786-O [3]; [16]) [nM] | AC50 (HT29 [4]; [17]) [nM] | AC50 (HT29 [4]; [18]) [nM] | AC50 (SUM149 [8]; [19]) [nM] | AC50 (SUM149 [8]; [20]) [nM] | further results
1 | CCCNC(=O)Nc1cccc(S(=O)(=O)Nc2cccc([C@@H](CC(=O)O)NC(=O)Nc3ccc(NC(=O)NCCOCCOCCOCCC(=O)N[C@@H](CC(=O)O)C(=O)N4CCC[C@H]4C(=O)N[C@H](C(=O)O[C@]4(CC)C(=O)OCc5c4cc4n(c5=O)Cc5cc6cc7c(cc6nc5-4)OCO7)C(C)C)cc3)c2)c1 [Compound 5, (7S)-7-ethyl-8,11-dioxo-7,8,11,13-tetrahydro-2H,10H-[1,3]dioxolo[4,5-g]pyrano [3′,4′:6,7]indolizino[1,2-b]quinolin-7-yl N-(14-{4-[({(1R)-2-carboxy-1-[3-({3-[(propylcarbamoyl)amino]benzene-1-sulfonyl}amino)phenyl]ethyl}carbamoyl)amino]anilino}-14-oxo-4,7,10-trioxa-13-azatetradecanan-1-oyl)-L-alpha-aspartyl-L-prolyl-L-valinate-bis sodium salt] | < 1 | > 100 | 1.1 to 10 | > 100 | 1.1 to 10 | > 100 | < 1 | 11 to 100 |  |  |  |  |  |  |  |  | IC50 (SUM149 [1]; read-out: SUM149 IC50 w elastase): < 0.01 nM; IC50 (SUM149 [1]; read-out: SUM149 IC50 w/o): 1.1 to 10 nM; IC50 (NCI H292 [5]; read-out: NCI H292 IC 50 w elastase): < 0.01 nM; IC50 (NCI H292 [5]; read-out: NCI H292 IC 50 w/o): 1.1 to 10 nM; IC50 (786-O [6]; read-out: 786-O IC50 w elastase): < 0.01 nM; IC50 (786-O [6]; read-out: 786-O IC50 w/o): 1.1 to 10 nM; IC50 (HT29 [7]; read-out: HT29 IC50 w elastase): < 0.01 nM; IC50 (HT29 [7]; read-out: HT29 IC50 w/o): 10 to 100 nM
2 | CCCNC(=O)Nc1cccc(S(=O)(=O)Nc2cccc([C@@H](CC(=O)O)NC(=O)Nc3ccc(NC(=O)NCCOCCOCCOCCC(=O)N[C@@H](CC(=O)O)C(=O)N4CCC[C@H]4C(=O)N[C@H](C(=O)O[C@]4(CC)C(=O)OCc5c4cc4n(c5=O)Cc5c-4nc4cc(F)c(C)c6c4c5[C@@H](N)CC6)C(C)C)cc3)c2)c1 [Compound 4b, disodium (1S,9S)-1-amino-9-ethyl-5-fluoro-4-methyl-10,13-dioxo-2,3,9,10,13,15-hexahydro-1H,12H-benzo[de]pyrano[3′,4′:6,7]indolizino[1,2-b]quinolin-9-yl 1-{(2S)-2-(carboxylatomethyl)-17-[4-({[(1R)-2-carboxylato-1-{3-[({3-[(propylcarbamoyl)amino]phenyl}sulfonyl)amino]phenyl}ethyl]carbamoyl}amino)anilino]-4,17-dioxo-7,10,13-trioxa-3,16-diazaheptadecan-1-oyl}-L-prolyl-L-valinate] |  |  |  |  |  |  |  |  | 1.1 to 10 | > 100 | 1.1 to 10 | > 100 | 1.1 to 10 | > 100 | < 1 | 11 to 100 | IC50 (SUM149 [1]; SUM149 cells, with 10 nM elastase, 72 h, MTT, read-out: SUM149 IC50 w elastase): < 0.01 nM; IC50 (SUM149 [1]; SUM149 cells, without elastase, 72 h, MTT, read-out: SUM149 IC50 w/o): 1.1 to 10 nM; IC50 (NCI H292 [5]; NCI H292 cells, with 10 nM elastase, 72 h, MTT, read-out: NCI H292 IC 50 w elastase): 0.01 to 0.1 nM; IC50 (NCI H292 [5]; NCI H292 cells, without elastase, 72 h, MTT, read-out: NCI H292 IC 50 w/o): 1.1 to 10 nM; IC50 (786-O [6]; 786-O cells, with 10 nM elastase, 72 h, MTT, read-out: 786-O IC50 w elastase): 0.01 to 0.1 nM; IC50 (786-O [6]; 786-O cells, without elastase, 72 h, MTT, read-out: 786-O IC50 w/o): 10 to 100 nM; IC50 (HT29 [7]; HT29 cells, with 10 nM elastase, 72 h, MTT, read-out: HT29 IC50 w elastase): 0.1 to 1 nM; IC50 (HT29 [7]; HT29 cells, without elastase, 72 h, MTT, read-out: HT29 IC50 w/o): 10 to 100 nM
3 | CCCNC(=O)Nc1cccc(S(=O)(=O)Nc2cccc([C@@H](CC(=O)O)NC(=O)Nc3ccc(NC(=O)NCCOCCOCCOCCC(=O)NCCCC[C@H](NC(=O)CCOCCOCCOCCNC(=O)Nc4ccc(NC(=O)N[C@H](CC(=O)O)c5cccc(NS(=O)(=O)c6cccc(NC(=O)NCCC)c6)c5)cc4)C(=O)NCCOCCOCCOCCC(=O)N[C@@H](CC(=O)O)C(=O)N4CCC[C@H]4C(=O)N[C@H](C(=O)O[C@]4(CC)C(=O)OCc5c4cc4n(c5=O)Cc5cc6cc7c(cc6nc5-4)OCO7)C(C)C)cc3)c2)c1 [Compound 22] | < 1 | 1.1 to 10 | < 1 | > 100 | 1.1 to 10 | > 100 | < 1 | 11 to 100 |  |  |  |  |  |  |  |  | 
4 | CCCNC(=O)Nc1cccc(S(=O)(=O)Nc2cccc([C@@H](CC(=O)O)NC(=O)Nc3ccc(NC(=O)NCCOCCOCCOCCC(=O)NCCCC[C@H](NC(=O)CCOCCOCCOCCNC(=O)Nc4ccc(NC(=O)N[C@H](CC(=O)O)c5cccc(NS(=O)(=O)c6cccc(NC(=O)NCCC)c6)c5)cc4)C(=O)NCCOCCOCCOCCC(=O)N[C@@H](CC(=O)O)C(=O)N4CCC[C@H]4C(=O)N[C@H](C(=O)O[C@]4(CC)C(=O)OCc5c4cc4n(c5=O)Cc5c-4nc4cc(F)c(C)c6c4c5[C@@H](NC(C)=O)CC6)C(C)C)cc3)c2)c1 [Compound 24] | 1.1 to 10 | > 100 | 1.1 to 10 | > 100 | 11 to 100 | > 100 | 1.1 to 10 | 11 to 100 |  |  |  |  |  |  |  |  | 
5 | CCCNC(=O)Nc1cccc(S(=O)(=O)Nc2cccc([C@@H](CC(=O)O)NC(=O)Nc3ccc(NC(=O)NCCOCCOCCOCCC(=O)N[C@@H](CC(=O)O)C(=O)N4CCC[C@H]4C(=O)N[C@H](C(=O)O[C@]4(CC)C(=O)OCc5c4cc4n(c5=O)Cc5c-4nc4cc(F)c(C)c6c4c5[C@@H](N(C)C)CC6)C(C)C)cc3)c2)c1 [Compound 20, (1S,9S)-1-(dimethylamino)-9-ethyl-5-fluoro-4-methyl-10,13-dioxo-2,3,9,10,13,15-hexahydro-1H,12H-benzo[de]pyrano[3′,4′:6,7]indolizino[1,2-b]quinolin-9-yl N-(14-{4-[({(1R)-2-carboxy-1-[3-({3-[(propylcarbamoyl)amino]benzene-1-sulfonyl}amino)phenyl]ethyl}carbamoyl)amino]anilino}-14-oxo-4,7,10-trioxa-13-azatetradecanan-1-oyl)-L-alpha-aspartyl-L-prolyl-L-valinate] |  |  |  |  |  |  |  |  | 1.1 to 10 | > 100 | 1.1 to 10 | > 100 | 11 to 100 | > 100 | 1.1 to 10 | > 100 | 
